Reference: patent US11497736B2, “Compositions for an orally active 1,2,4-oxadiazole for the treatment of disease” (PTC Therapeutics, Inc., priority 2005, dated 2022)

How the values were obtained:
Type in all cases: in vivo, human
CFTR = experiment: Transepithelial potential difference (TEPD) chloride conductance, Phase 2 study in nonsense-mutation-mediated cystic fibrosis; settings: for Mean change in TEPD chloride conductance: 15 CF patients; for Number of patients with improvement in TEPD chloride conductance to normal / Number of patients with ≥−5 mV improvement in TEPD chloride conductance: patients/total
Description: The measurement of transepithelial potential difference (TEPD), also known as nasal potential difference, provides a sensitive evaluation of sodium and chloride transport directly in secretory epithelial cells via assessment of transepithelial bioelectric properties (Knowles et al., 1981, N. Engl. J. Med. 305(25):1489-95; Knowles et al., 1995, Hum. Gene Ther. 6:445). TEPD is performed in each nostril using standardized techniques (Standaert et al., 2004, Ped. Pulm. 37:385-92). In the procedure, a small plastic catheter is used to assess electrical differences across the outer cell membrane of nasal mucosa cells in the nostril. TEPD values are expressed in millivolts, or mV. A chloride conductance equal to or more electrically negative than −5.0 mV is generally considered to be in the normal range. […] TEPD assessments can also be made on rectal epithelial cells and lower respiratory epithelial cells. Because of the role of the CFTR protein in transporting chloride ions across cell membranes, and because of the absence of this protein, cystic fibrosis patients have an abnormal TEPD chloride conductance. As an endpoint, TEPD has the advantage that it can detect chloride transport changes that are a quantitative integration of the presence, functional activity, and apical location of the CFTR in airway cells. Furthermore, it is a direct measure of CFTR activity that is not likely to be affected by supportive or palliative treatments for CF (with the possible exception of systemically administered aminoglycoside antibiotics). Of importance is evidence that TEPD values can correlate with the degree of pulmonary dysfunction and radiographic abnormality (Ho et al., 1997, Eur. Respir. J. 10(9):2018-22; Fajac et al., 1998, Eur. Respir. J 12(6):1295-300; Sermet-Gaudelus et al., 2005, Am. J. Respit. Crit. Care Med. 171(9):1026-1031). […] Under baseline conditions, TEPD-assessed chloride channel activity is very unlikely to normalize spontaneously in patients with CF; any observed improvements in TEPD-assessed chloride channel activity are expected to specifically denote pharmacological activity of CFTR-correcting therapies. Accordingly, it has become the primary endpoint in Phase 1-2 pharmacological and gene replacement studies aimed at correcting CFTR dysfunction (Peckham et al., 1995, AJ. Clin Sci (London). 89(3):277-84; Wilschanski et al., 2003, N. Engl. J Med. 349(15):1433-41).
(§1) 3-[5-(2-Fluoro-phenyl)-[1,2,4]oxadiazol-3-yl]-benzoic acid was provided in a formulation described herein.
(§2) Clinical endpoints were evaluated using the procedures set forth above. TEPD measurements were made prior to treatment and on days 14 and 28 of Cycle 1 and Cycle 2. Nasal mucosal curettage was collected from each nostril of each patient prior to treatment and on days 14 and 28 of Cycle 1 and Cycle 2. Pulmonary tests, including FEV1, FVC and MEF25-75, were measured prior to treatment, on day −1 of Cycle 2, on day 13 or 14 of Cycle 1 and day 13 or 14 of Cycle 2 in the study being conducted in Israel and the same parameters were measured prior to treatment and on day 13 or 14 of Cycle 2 in the study being conducted in the United States.
This is the average of the changes from the beginning to the end of the treatment period in TEPD chloride conductance within each study participant. For example, if the changes in TEPD chloride conductance within each of three participants were −7.0 mV, −2.0 mV and −9.0 mV, the mean change in TEPD chloride conductance among these participants would be −6.0 mV.
For purposes of the trials, a chloride conductance response is defined as a TEPD chloride conductance improvement of at least −5 mV. For example, in a patient with a TEPD chloride conductance value of +1.0 mV at baseline and a TEPD chloride conductance value of −6.0 mV at the end of treatment, the TEPD chloride conductance improvement would be −7.0 mV, representing a chloride conductance response. […]

[1] = Patient-reported changes in cystic fibrosis symptoms, asked by trial investigators; settings: of the 15 patients in the interim analysis
Excerpt: as §1
In addition, although changes in patient's symptoms were not formally measured through the use of a quality-of-life questionnaire, trial investigators were requested to ask about changes in patients' cystic fibrosis symptoms. In the 15 patients included in the interim analysis, 6 reported general improvements in well being, 6 reported decrease in cough and 10 reported decreased mucus thickness and easier clearing of mucus.

[2] = Pulmonary function tests (FEV1, FVC) by spirometry, Phase 2 cystic fibrosis study
Description: Pulmonary function tests, including FEV1, FVC, and MEF25-75, are measured using standard spirometry procedures. Assessments of pulmonary function (including MEF25-75, FVC, and, particularly, FEV1) have been acknowledged as definitive clinical endpoints in patients with CF (Food and Drug Administration, 62nd Anti-Infective Drugs Advisory Committee. Discussion of NDA for tobramycin solution for inhalation (Tobi®) for the management of cystic fibrosis patients. November, 1997; Tiddens, 2002, Pediatr. Pulmonol. 34(3): 228-31). […] Pulmonary function testing is simple to administer (even in patients as young as 7 years of age), and uses standardized equipment and techniques that are widely available. Interpretation is performed using well-established normative equations that account for patient age, height, and gender.
as §1, §2
(§3) Statistically significant results and positive trends for secondary endpoints were also observed. In particular, although the trials were not been powered to detect statistical significant changes in secondary endpoints, statistically significant improvements from study entry to the end of the higher-dose treatment cycle in the patients' mean FEV1, FVC and weight were observed.

[3] = Body weight, Phase 2 cystic fibrosis study
Excerpt: as §1, §3

[4] = Best of nostrils, higher dose level
[5] = Best of nostrils, lower dose level
[6] = Mean of both nostrils, higher dose level
[7] = Mean of both nostrils, lower dose level
[8] = Change from study entry to end of higher dose treatment

Compound: O=C(O)c1cccc(-c2noc(-c3ccccc3F)n2)c1 [3-[5-(2-Fluoro-phenyl)-[1,2,4]oxadiazol-3-yl]-benzoic acid]
- Number of patients with improvement in TEPD chloride conductance to normal (percentage) (CFTR; [4]): (53%)
- Number of patients with ≥−5 mV improvement in TEPD chloride conductance (percentage) (CFTR; [4]): (53%)
- Mean change in TEPD chloride conductance (CFTR; Best of nostrils, higher dose level (10, 10, 20 mg/kg TID oral, 14 days)): −6.4 mV
- Number of patients with improvement in TEPD chloride conductance to normal (CFTR; [4]): 8/15
- Number of patients with ≥−5 mV improvement in TEPD chloride conductance (CFTR; [4]): 8/15
- Number of patients with improvement in TEPD chloride conductance to normal (percentage) (CFTR; [5]): (53%)
- Number of patients with ≥−5 mV improvement in TEPD chloride conductance (percentage) (CFTR; [5]): (60%)
- Mean change in TEPD chloride conductance (CFTR; Best of nostrils, lower dose level (4, 4, 8 mg/kg TID oral, 14 days)): −9.0 mV
- Number of patients with improvement in TEPD chloride conductance to normal (CFTR; [5]): 8/15
- Number of patients with ≥−5 mV improvement in TEPD chloride conductance (CFTR; [5]): 9/15
- Number of patients with improvement in TEPD chloride conductance to normal (percentage) (CFTR; [6]): (47%)
- Number of patients with ≥−5 mV improvement in TEPD chloride conductance (percentage) (CFTR; [6]): (47%)
- Mean change in TEPD chloride conductance (CFTR; Mean of both nostrils, higher dose level (10, 10, 20 mg/kg TID oral, 14 days)): −4.4 mV
- Number of patients with improvement in TEPD chloride conductance to normal (CFTR; [6]): 7/15
- Number of patients with ≥−5 mV improvement in TEPD chloride conductance (CFTR; [6]): 7/15
- Number of patients with improvement in TEPD chloride conductance to normal (percentage) (CFTR; [7]): (40%)
- Number of patients with ≥−5 mV improvement in TEPD chloride conductance (percentage) (CFTR; [7]): (40%)
- Mean change in TEPD chloride conductance (CFTR; Mean of both nostrils, lower dose level (4, 4, 8 mg/kg TID oral, 14 days)): −6.7 mV
- Number of patients with improvement in TEPD chloride conductance to normal (CFTR; [7]): 6/15
- Number of patients with ≥−5 mV improvement in TEPD chloride conductance (CFTR; [7]): 6/15
- Patients who reported decrease in cough [1]: 6
- Patients who reported decreased mucus thickness and easier clearing of mucus [1]: 10
- Patients who reported general improvements in well being [1]: 6
- Mean FEV1 change (percentage of normal for gender, age and height) [2, 8]: 3.3%
- Mean FVC change (percentage of normal for gender, age and height) [2, 8]: 4.9%
- Mean FEV1 (percentage of normal for gender, age and height) ([2]; End of higher dose treatment, study entry 65.8%): 69.1%
- Mean FVC (percentage of normal for gender, age and height) ([2]; End of higher dose treatment, study entry 80.2%): 85.1%
- Weight change [3, 8]: 0.7 kg
- Weight ([3]; End of higher dose treatment, study entry 58.3 kg): 59.0 kg
